Reference: patent US20240140970A1, “A […], AND PREPARATION METHOD AND USE THEREOF” (ASCENTAWITS PHARMACEUTICALS, LTD., priority 2021, published 2024)
Several values for one entry are separate records, joined by “and”; a condition that tells them apart may be missing. Equal values may be shown once.

Tests used:
[1] = Stability of AST-2660 in human urine at −20° C. and −70° C. for one month (LC-MS/MS); format: in vitro ADME
Description: (§1) The detection method established in example 6 was used to detect the content of AST-2660 in the human urine to be tested.
(§2) Matrix: the mixed normal human urine containing an additive Na2HPO4·12H2O. • a: the internal standard working solution: AST-2660-D8 was taken, dissolved with methanol, and diluted to prepare a solution containing about 100 ng per 1 ml. • b: the solution to be tested (no internal standard compound was added to the solution to be tested at this time): it was obtained by taking a blood sample to be tested. • c: the standard working solution (no internal standard compound was added to the standard working solution at this time): an appropriate amount of AST-2660 was taken and accurately weighed, dissolved with methanol and diluted to prepare a solution containing about 1.0 mg per 1 ml, which was used as the standard working stock solution. An appropriate amount of the standard working stock solution was taken, added with the matrix and diluted to prepare standard working solutions with different concentrations containing about 200 ng, 160 ng, 100 ng, 50 ng, 10 ng, 2.0 ng, 1.0 ng and 0.5 ng per 1 ml, respectively. (The solution was stored at −70° C.) • d: the quality control sample solution: an appropriate amount of AST-2660 was taken and accurately weighed, dissolved with methanol, and diluted to prepare a solution containing about 10 μg per 1 ml, which was used as the quality control working stock solution. An appropriate amount of the quality control working stock solution was taken, and added with the matrix to prepare quality control working solutions with different concentrations containing about 150 ng, 60 ng, 15 ng, 1.5 ng and 0.5 ng per 1 ml. (The solution was stored at −70° C.)
(§3) The solution to be tested, the standard working solution and the quality control sample solution were thawed at room temperature and mixed uniformly. 100 μl of the above solution was respectively taken, added with 20 μl of the internal standard and 500 μl of methanol, and vortexed for 3 minutes to mix uniformly, and then centrifuged for 30 minutes at 2143 rcf. 450 μl of supernatant was taken, and then centrifuged for 10 minutes in a 96-well plate at 2143 rcf. It was obtained by taking 300 μl of supernatant.
(§4) Liquid phase conditions: A SHARC 1, 3 μm, 2.1*50 mm or chromatograph column with equivalent performance was used; methanol solution containing low content of ammonium acetate was used; mobile phase B was acetonitrile; the gradient elution was performed according to the following table; column temperature: 20° C.; injection volume: 5 μl.
(§5) Mass spectrometric conditions: electrospray ion source with negative ion scanning mode; spray potential: −4500 V; ion source temperature: 500° C.; collision energy (CE): −22 eV; declustering potential (DP): −55V; entrance potential (EP): −10V; collision chamber exit potential (CXP): −16V; dwell time: 100 ms; high purity nitrogen was used for all gases; AST-2660 ions pairs: m/z 147.0→m/z 62.9; the internal standard AST-2660-D8 ion pairs: m/z 155.0→m/z 62.9.
(§6) The AST-2660 standard working solution, blank sample, zero concentration sample, solution to be tested and quality control working solution with different concentrations after extraction were respectively taken and injected into LC-MS/MS for detection.
(§7) Calculation results: the relationship function y=f (x) of the ratio of the peak area of AST-2660 to that of the internal standard was obtained from AST-2660 standard working solutions with different concentrations. The ratio of the peak area of AST-2660 to that of the internal standard was determined from the solution to be tested after extraction, and substituted into the relationship function y=f (x) to calculate the concentration of the metabolite II in the solution to be tested.

[2] = Freeze/thaw stability of AST-2660 in human urine (LC-MS/MS); format: in vitro ADME
Description: as §1, §2, §3, §4, §5, §6, §7

[3] = Stability of treated (extracted) human urine samples of AST-2660 at room temperature (LC-MS/MS); format: physicochemical; conditions: 94 hours at room temperature
Description: as §1
Matrix: the mixed normal human urine containing an additive Na2HPO4·12H2O. • a: the internal standard working solution: AST-2660-D8 was taken, dissolved with methanol, and diluted to prepare a solution containing about 100 ng per 1 ml. • b: the solution to be tested (no internal standard compound was added to the solution to be tested at this time): it was obtained by taking a blood sample to be tested. • c: the standard working solution (no internal standard compound was added to the standard working solution at this time): an appropriate amount of AST-2660 was taken and accurately weighed, dissolved with methanol and diluted to prepare a solution containing about 1.0 mg per 1 ml, which was used as the standard working stock solution. […]
as §7

[4] = Experimental table stability of AST-2660 in human urine at room temperature (LC-MS/MS); format: in vitro ADME; conditions: for RE (%) vs nominal / AST-2660 concentration, Mean value / AST-2660 concentration, single replicates: human urine, room temperature
Description: as §1, §2, §3, §4, §5, §6, §7

[5] = DilQC (10-fold dilution) nominal 1500 ng/ml, 32 days at −20° C.
[6] = DilQC (10-fold dilution) nominal 1500 ng/ml, 32 days at −70° C.
[7] = QC1 nominal 1.50 ng/ml, 32 days at −70° C. (actually tested on day 34)
[8] = QC4 nominal 150 ng/ml, 32 days at −20° C.
[9] = QC4 nominal 150 ng/ml, 32 days at −70° C.
[10] = human urine, DilQC (10-fold dilution) nominal 1500 ng/ml, 3 freeze/thaw cycles at −70° C.
[11] = human urine, DilQC (10-fold dilution) nominal 1500 ng/ml, 5 freeze/thaw cycles at −70° C.
[12] = human urine, QC1 nominal 1.50 ng/ml, 3 freeze/thaw cycles at −70° C.
[13] = human urine, QC1 nominal 1.50 ng/ml, 5 freeze/thaw cycles at −70° C.
[14] = human urine, QC4 nominal 150 ng/ml, 3 freeze/thaw cycles at −70° C.
[15] = human urine, QC4 nominal 150 ng/ml, 5 freeze/thaw cycles at −20° C.
[16] = human urine, QC4 nominal 150 ng/ml, 5 freeze/thaw cycles at −70° C.
[17] = QC1 nominal 1.50 ng/ml, 4 hours
[18] = QC1 nominal 1.50 ng/ml, 24 hours
[19] = QC4 nominal 150 ng/ml, 24 hours

O=P([O-])(N1CC1)N1CC1.[Na+] [AST-2660]
reduction of AST-2660 content ([1]; 32 days of storage at −20° C.): ~90%
change of AST-2660 content (in words) ([1]; 32 days of storage at −70° C.): almost no reduction
AST-2660 concentration, Mean value [1, 5]: 7.23 ng/mL
AST-2660 concentration, single replicates [1, 5]: 6.87 ng/mL and 7.70 ng/mL and 7.73 ng/mL and 6.60 ng/mL
RE (%) vs nominal [1, 5]: −99.5%
AST-2660 concentration, Mean value [1, 6]: 1483 ng/mL
AST-2660 concentration, single replicates [1, 6]: 1570 ng/mL and 1400 ng/mL and 1470 ng/mL and 1490 ng/mL
RE (%) vs nominal [1, 6]: −1.2%
AST-2660 concentration, single replicates ([1]; QC1 nominal 1.50 ng/ml, 32 days at −20° C.): <LLOQ (0.500) ng/ml
AST-2660 concentration, Mean value [1, 7]: 1.71 ng/mL
AST-2660 concentration, single replicates [1, 7]: 1.53 ng/mL and 1.97 ng/mL and 1.72 ng/mL and 1.60 ng/mL
RE (%) vs nominal [1, 7]: 13.7%
AST-2660 concentration, Mean value [1, 8]: 13.4 ng/mL
AST-2660 concentration, single replicates [1, 8]: 13.1 ng/mL and 12.4 ng/mL and 12.9 ng/mL and 15.2 ng/mL
RE (%) vs nominal [1, 8]: −91.1%
AST-2660 concentration, Mean value [1, 9]: 161 ng/mL
AST-2660 concentration, single replicates [1, 9]: 155 ng/mL and 159 ng/mL and 161 ng/mL and 168 ng/mL
RE (%) vs nominal [1, 9]: 7.2%
RE (accuracy), range over three concentration levels ([2]; freezing/thawing at −70° C. for up to 3 cycles, 1.5, 150 and 1500 ng/ml): RE: −11.8% to 12.5%
AST-2660 concentration, Mean value [2, 10]: 1540 ng/mL
AST-2660 concentration, single replicates [2, 10]: 1650 ng/ml and 1500 ng/ml (2×) and 1510 ng/ml
RE (%) vs nominal [2, 10]: 2.7%
AST-2660 concentration, single replicates ([2]; human urine, DilQC (10-fold dilution) nominal 1500 ng/ml, 5 freeze/thaw cycles at −20° C.): <LLOQ (5.00) ng/ml
AST-2660 concentration, Mean value [2, 11]: 1508 ng/mL
AST-2660 concentration, single replicates [2, 11]: 1490 ng/ml and 1500 ng/ml (2×) and 1540 ng/ml
RE (%) vs nominal [2, 11]: 0.5%
AST-2660 concentration, Mean value [2, 12]: 1.60 ng/mL
AST-2660 concentration, single replicates [2, 12]: 1.69 ng/mL and 1.72 ng/mL and 1.47 ng/mL and 1.51 ng/mL
RE (%) vs nominal [2, 12]: 6.5%
AST-2660 concentration, single replicates ([2]; human urine, QC1 nominal 1.50 ng/ml, 5 freeze/thaw cycles at −20° C.): <LLOQ (0.500) ng/ml
AST-2660 concentration, Mean value [2, 13]: 1.73 ng/mL
AST-2660 concentration, single replicates [2, 13]: 2.14 ng/mL and 1.58 ng/mL and 1.68 ng/mL and 1.52 ng/mL
RE (%) vs nominal [2, 13]: 15.3%
AST-2660 concentration, Mean value [2, 14]: 149 ng/mL
AST-2660 concentration, single replicates [2, 14]: 145 ng/ml and 148 ng/ml (2×) and 154 ng/ml
RE (%) vs nominal [2, 14]: −0.8%
AST-2660 concentration, Mean value [2, 15]: 13 ng/mL
AST-2660 concentration, single replicates [2, 15]: 12.2 ng/mL and 13.0 ng/mL and 12.3 ng/mL and 12.5 ng/mL
RE (%) vs nominal [2, 15]: −91.7%
AST-2660 concentration, Mean value [2, 16]: 173 ng/mL
AST-2660 concentration, single replicates [2, 16]: 172 ng/ml (2×) and 169 ng/ml and 178 ng/ml
RE (%) vs nominal [2, 16]: 15.2%
reduction of AST-2660 content ([2]; human urine, freeze-thaw process from −20° C. to room temperature): ~90%
change of AST-2660 content (in words) ([2]; human urine, freeze-thaw process from −70° C. to room temperature): almost no reduction
stability (in words) [3]: stable
RE (accuracy), range over three concentration levels ([4]; human urine at room temperature for 4 hours, 1.5, 150 and 1500 ng/ml): RE: −8.5% to 4.5%
RE (%) vs nominal ([4]; DilQC (10-fold dilution) nominal 1500 ng/ml, 0 hour): −5.7%
RE (%) vs nominal ([4]; DilQC (10-fold dilution) nominal 1500 ng/ml, 4 hours): −5.7%
RE (%) vs nominal ([4]; DilQC (10-fold dilution) nominal 1500 ng/ml, 24 hours): −13.2%
AST-2660 concentration, Mean value ([4]; QC1 nominal 1.50 ng/ml, 0 hour): 1.37 ng/mL
AST-2660 concentration, single replicates ([4]; QC1 nominal 1.50 ng/ml, 0 hour): 1.44 ng/mL
RE (%) vs nominal ([4]; QC1 nominal 1.50 ng/ml, 0 hour): −8.5%
AST-2660 concentration, Mean value [4, 17]: 1.45 ng/mL
AST-2660 concentration, single replicates [4, 17]: 1.51 ng/mL
RE (%) vs nominal [4, 17]: −3.7%
AST-2660 concentration, Mean value [4, 18]: 1.90 ng/mL
AST-2660 concentration, single replicates [4, 18]: 2.07 ng/mL
RE (%) vs nominal [4, 18]: 26.7%
AST-2660 concentration, single replicates ([4]; QC4 nominal 150 ng/ml, 0 hour): 141 ng/mL and 144 ng/mL and 142 ng/mL and 146 ng/mL
RE (%) vs nominal ([4]; QC4 nominal 150 ng/ml, 0 hour): −4.5%
AST-2660 concentration, single replicates ([4]; QC4 nominal 150 ng/ml, 4 hours): 156 ng/mL and 154 ng/mL and 159 ng/mL
RE (%) vs nominal ([4]; QC4 nominal 150 ng/ml, 4 hours): 4.5%
AST-2660 concentration, single replicates [4, 19]: 149 ng/ml (2×) and 154 ng/ml
RE (%) vs nominal [4, 19]: 0.8%
stability (in words) ([4]; untreated human urine samples, 24 hours at room temperature): stable
